{
  "source": "patent US9205073B2",
  "about": "“Method for treating virus infection using derivative of aniline” (CHINA MEDICAL UNIVERSITY, priority 2014, dated 2015)",
  "key": {"[1]": {"tested_on": "EV71", "test": "Enterovirus replication, plaque test in RD cells", "format": "cell-based, enterovirus type 71", "details": "Enterovirus A, 36 h, read-out: inhibitory rate of EV 71 replication", "method": "The RD cells were cultured in a 24-well culture plate with an initial density of 3×10^4 per well, as well as with 1 ml of 2% FBS-containing MEM medium per well. The cells were incubated in an incubator (37° C., 5% CO2) overnight. The medium was removed, and then, 1 ml of fresh 2% FBS-containing MEM medium was simultaneously added into each well. The RD cells were infected with an EV71 virus strain (M.O.I.=0.1). Different concentrations of compound 1 (final concentrations were 0, 2.5, 25 and 125 μM) were added into different wells respectively. RD cells were incubated in an incubator (37° C., 5% CO2) for 36 hours, and then the viral medium was collected for the following plaque test.\nThe RD cells were cultured in a 6-well culture plate, and incubated in an incubator (37° C., 5% CO2) overnight. The medium was removed, and then 200 μl of the above 10^4 times diluted viral medium was added into each well. The cells were infected for 1 hour. Then, 3 ml of a 3% agarose covering solution was added into each well. The cells were incubated in an incubator (37° C., 5% CO2) for 3 days. The covering solution was removed. Methyl blue was added into each well, and the plate was placed at room temperature overnight, and then washed with clear water, and dried. The number of plaques was counted to calculate the virus titer and inhibitory rate."}, "[2]": {"test": "MTT assay, cell survival / CC50 in BHK-21 cells", "format": "cell-based", "details": "hamster, read-out: concentration of 50% cytotoxicity (CC50)", "method": "In this example, 3-(4,5-dimethylthiazol-2-yl)-2,5-diphenyl tetrazolium bromide (MTT) was used to determine if the survival rate of BHK-21 cells, TE671cells and RD cells would be influenced when being treated with different concentrations of compound 1 prepared in Example 1. The concentration of 50% cytotoxicity (CC50) of compound 1 in BHK-21 cells, TE671cells and RD cells was also calculated.\nMTT is a water-soluble tetrazolium salt which can react in the mitochondrial respiratory chain in living cells to metabolize and reduce the tetrazolium bromide shown in the structure of MTT and to form an water-insoluble purple crystal formazan under the reaction of succinate dehydrogenase (SDH) and cytochrome c (cyt c). The amount of the produced crystal is directly proportional to the number of living cells (because the SDH will disappear from dead cells, and thus, the MTT cannot be reduced). Furthermore, a mitochondrium is an organelle in cells that is most sensitive to the environment, and thus, the MTT assay can serve as a marker for the survival rate of cells treated by the drug.\nBHK-21 cells, TE671cells and RD cells were cultured in a 96-well culture plate, respectively, with an initial density of 3×10^3 per well, and with 100 μl of 2% FBS-containing MEM medium per well. […] The absorbances of the samples were measured by ELISA at a wavelength of 570/630 nm."}},
  "data": [
    {"smiles": "CCOC(=O)C1=C(Nc2cc(C)cc(C)c2)OCC1=O", "note": "[Compound 1, ethyl 2-(3′,5′-dimethylanilino)-4-oxo-4,5-dihydrofuran-3-carboxylate]", "values": [
      {"measurement": "inhibition at 2.5 µM", "setting": "[1]", "result": 4.6, "unit": "%"},
      {"measurement": "inhibition at 25 µM", "setting": "[1]", "result": 23, "unit": "%"},
      {"measurement": "inhibition at 125 µM", "setting": "[1]", "result": 24.6, "unit": "%"},
      {"measurement": "CC50 at 48 h", "setting": "[2]", "result": "> 500", "unit": "µM"}
    ]}
  ]
}
